In patent US11352315B2, “Compositions and methods comprising a triaryl polyamine” (Curza Global, LLC, priority 2017, dated 2022):
Converted amounts (≈) assume the structure as drawn.

Key:
MRSA [1] = assay: MIC analysis; type: cell-based; conditions: Staphylococcus aureus, 24 hours
Experimental: (§1) A clinical strain of MRSA, isolated from a patient who underwent arthroscopic knee surgery and characterized by ARUP Laboratories, Salt Lake City, Utah, was used for this study in addition to Pseudomonas aeruginosa ATCC 27853 and Alcanivorax borkumensis ATCC 700651. P. aeruginosa was resuspended in BHI broth, grown overnight at 37° C. and transferred to fresh BHI with 30% glycerol for storage at −80° C. The MRSA isolate was likewise stored in BHI with 30% glycerol at −80° C. […] Before performing MIC analysis and biofilm experiments, the frozen stocks of MRSA and P. aeruginosa were streaked onto Columbia blood agar plates and grown overnight at 37° C. A. borkumensis ATCC 700651 was resuspended from a lyophilized pellet into marine broth, grown overnight at 30° C. and passaged on marine agar plates prior to experimentation.
(§2) To determine the MIC of polyamine compounds, the protocol described herein was used.
(§3) In brief, a 0.5 McFarland of each bacterial isolate was made. A 0.5 McFarland is a measure of turbidity in a liquid sample that contains approximately 1×10^^8 CFU/mL. The 0.5 McFarland standard was diluted in cation adjusted Mueller Hinton Broth (CAMHB), and 50 μL of broth were added to a well of a 96-well plate. In addition, 50 μL of CAMHB that contained a desired concentration of antimicrobial were also added to the well for a final volume of 100 μL and a final concentration of approximately 5×10^4 CFU/well (which equated to approximately 5×10^5 CFU/mL). Each well contained a desired amount of polyamine compound in order to experimentally determine the MIC. Each 96-well plate was incubated at 37° C. for 24 hours. The contents of each well were plated on tryptic soy agar (TSA). TSA plates were incubated for 37° C. for 24 hours after which the number of CFU were counted and used to calculate the CFU/mL that remained after exposure to varying concentrations of compound. This procedure was repeated n=8 times for each concentration of antimicrobial.

P. aeruginosa [2] = assay: MIC analysis; type: cell-based; conditions: Pseudomonas aeruginosa, 24 hours
Experimental: as §1, §2, §3

A. baumannii [3] = assay: MIC analysis; type: cell-based; conditions: Acinetobacter baumannii, 24 hours
Experimental: as §2, §3

A. baumannii [4] = assay: MBEC analysis, MBEC Inoculation Tray (column headed MBC); type: cell-based; conditions: Acinetobacter baumannii, 24 hours
Text: (§4) To determine the MBEC of each polyamine compound, the MBEC Inoculation Tray by Innovotech, formerly known as the Calgary biofilm device, was used. Within this device, biofilms grow on the surface of polystyrene pegs, 96 of which are attached to a lid. These pegs are inserted into a flat bottom 96-well plate. In this instance, the MBEC of a molecule was defined as the concentration of compound (in μg/mL) required to reduce 10^5 or 10^6 CFU/peg (biofilm levels varied by isolate) to 10^2 CFU/peg in a 24-hour period.
(§5) Following the manufacturer's guidelines, biofilms were grown on the surface of each peg by first making a 0.5 McFarland of each isolate. The 0.5 McFarland was diluted 1:100 in CAMHB. Into each well of a flat bottom 96-well plate, 150 μL of broth were pipetted. The plate was shaken at 100 rpm for 24 hours (P. aeruginosa and A. baumannii) or 48 hours (MRSA). The pegs were then placed into a separate flat bottom 96-well plate for 10 seconds with 200 μL of phosphate buffered saline (PBS) in each well to remove nonadherent cells. The lid was then placed into a 96-well plate that contained varying concentrations of antimicrobial with 200 μL per well. The plate was incubated for 24 hours at 37° C. after which time 100 μL of broth were plated on TSA. TSA plates were incubated 24 hours at 37° C. and the number of CFU counted to calculate the CFU/peg. In this instance, the MBEC was defined as the concentration of antimicrobial required to reduce 10^5 or 10^6 CFU/peg to 10^2 CFU/peg in a 24 hour period.

MRSA [5] = assay: as above; type: cell-based; conditions: Staphylococcus aureus, 24 hours
Text: as §4, §5

P. aeruginosa [6] = assay: as above; type: cell-based; conditions: Pseudomonas aeruginosa, 24 hours
Text: as §4, §5

MRSA [7] = assay: EBEC analysis, high number biofilms on PEEK membranes; type: cell-based, Staphylococcus aureus; conditions: 24 hours
Experimental: (§6) To determine the efficacy of polyamine compounds against high number biofilms, biofilms were grown on the surface of polyetheretherketone (PEEK) membranes using a membrane biofilm reactor. This reactor was similar to the CDC biofilm reactor, but rather than growing biofilms on coupon surfaces, the reactor was modified to hold PEEK membranes. In short, to grow biofilms within this system, 500 mL of brain heart infusion (BHI) broth were inoculated with 1 mL of a 0.5 McFarland. The reactor was placed on a hot plate set at 34° C. and the bacteria were grown under batch conditions for 24 hours.
(§7) A solution of 10% BHI was then flowed through the reactor at a rate of 6.94 mL/min for an additional 24 hours. PEEK membranes were then removed and placed into 2 mL of CAMHB that contained a desired concentration of polyamine compound or antibiotic. The EBEC was defined as the concentration of antimicrobial required to reduce a biofilm from approximately 10^9 CFU/PEEK membrane to approximately 10^2 CFU/PEEK membrane in a 24-hour period.

A. baumannii [8] = assay: as above; type: cell-based, Acinetobacter baumannii; conditions: 24 hours
Experimental: as §6, §7

A. baumannii [9] = assay: Wound healing study, porcine excision wound model (Example 3); type: in vivo, Acinetobacter baumannii; conditions: for CFU/g Tissue: necropsy at 28 days
Experimental: An IACUC-approved in vivo analysis utilized an excision wound model in swine. Up to 32 partial thickness wounds were created/animal using a 1 cm biopsy punch (FIG. 1A). Wounds were inoculated with ^˜1×10^8 colony forming units (CFU) of A. baumannii in the planktonic or biofilm phenotype. Well-established biofilms were grown on the surface of bio-absorbable collagen in a modified CDC biofilm reactor for 8 days (FIG. 1B). An n=8 wounds were used for each treatment group.
For the treatment groups, infection was allowed to establish in each wound for 5 days after which time treatment with an antimicrobial began. […] In a separate pig, wounds were inoculated as above and a combination of colistin/imipenem (2.5 mg/each) was administered IV for 14 days for comparison to the current clinical standard of care for A. baumannii. […] Swine were monitored for 28 days. Wound size was measured daily. Culture swabs were collected regularly. At the time of necropsy, a 5 mm biopsy punch was used to collect tissue and calculate CFU/g using standard microbiological procedure. ANOVA analysis was used to compare differences in data with alpha 0.05.

[10] = test system: A. baumannii ATCC BAA 1605; assay: MIC testing against the planktonic phenotype (Example 5); type: cell-based; conditions: Acinetobacter baumannii, BAA1605, 24 hr at 37° C.
Experimental: (§8) The isolate was maintained on Columbia blood agar and passaged as necessary with overnight incubation at 37° C.
Minimum inhibitory concentration (MIC) testing against the planktonic phenotype was performed first. To do so, a modified protocol of the Clinical and Laboratory Standards Institute (CLSI) guideline M100 was used. In short, using a fresh overnight culture of bacteria, a 0.5 McFarland standard was made in PBS using a nephelometer, then diluted to achieve a concentration of ˜7.5×10^5 CFU/mL. A 96-well plate was set up such that a final volume of 100 μL was present in each well. Column 1 served as the negative control of growth (antibiotic only without bacteria added) and Column 11 served as the positive control of growth (bacteria only, no antibiotic).
Into columns 2-11, 50 μL of CAMHB were added to each well. […] The solution was mixed, then 50 μL were removed and added to wells of column 3. This 1:2 dilution process was continued through column 10. Lastly, into each well of columns 2-11, 50 μL of the prepared bacterial solution were added. […] The 96-well plate was covered with adhesive film and incubated 24 hr at 37° C. The concentration of antibiotic that inhibited pellet formation or turbidity was considered the MIC.

[11] = test system: A. baumannii ATCC BAA 1605 biofilms; assay: Biofilm efficacy in CAMHB broth, CDC biofilm reactor (Example 5); type: cell-based, Acinetobacter baumannii; conditions: 24 hr
Experimental: as §8
Biofilms were grown on polycarbonate coupons in a CDC biofilm reactor following the manufacturer's recommendation. Once assembled and autoclaved, the reactor was inoculated. To do so, a fresh overnight culture of A. baumannii was used to make a 0.5 McFarland standard of the bacterial isolate (˜5×10^7 CFU/mL). One mL of the 0.5 McFarland solution was inoculated into 500 mL of BHI in the CDC biofilm reactor. The reactor was placed on a hot plate set at 34° C. and a baffle rotation of 130 rpm for 24 hr. After 24 hr batch growth, a continuous flow of 10% BHI was flowed through the reactor at ˜6.9 mL/min for an additional 168 hr (7 days).
A 100 μL aliquot of broth was removed and plated using a 10-fold dilution series in order to quantify the CFU/coupon that remained. Testing was performed with n=3 repeats per concentration. A baseline of growth was determined by quantifying n=3 coupons/reactor immediately following growth.

A. baumannii [12] = assay: In vivo efficacy, porcine excision wound model (Example 6); design: species or system Acinetobacter baumannii; conditions: for Last Day that A. baumannii was Detected in At Least One Wound by Culture Swab / Log10 Transformed CFU/g Tissue at Necropsy (Day 28) / Last Day that A. baumannii was Detected in At Least One Wound: pig
Text: Four Yorkeshire pigs with weight in the range of approximately 40-50 kg were quarantined for a minimum of 7 days. Positive reinforcement (Swedish Fish®, marshmallows, Snickers® bars, fruit and/or other treats) was provided once daily to help the pigs become accustom to having their back manipulated—e.g., a back scratch with a soft brush—by a research team member. A custom-fit jacket was also placed on pigs during the acclimation period to allow them to become aware of the covering that would be on their body.
The night before a surgical procedure was to be performed, pigs were fasted. To perform surgery, pigs were anesthetized initially with a combination of tiletamine-zolazepam (Telazol®; 4.4 mg/kg), Ketamine (2.2 mg/kg) and Xylazine (2.2 mg/kg). Pigs were intubated, given isoflurane inhalant at 0.5-5.0%, transported to a surgical suite, placed in sternal recumbency and clipped/razor-shaved of hair in the region where excision wounds would be created. Pigs were rotated to dorsal recumbency and the jugular vein area was sterilely prepped using alternating betadine/isopropyl alcohol. Once prepped, the site was sterilely draped and a VAP was implanted. To do so, a ventral midline incision was made to isolate the jugular vein. A catheter was placed in the vein and secured. A second incision was made on the dorsal side of the neck and a tunnel created along the subcutaneous space from the second incision to the jugular vein. The catheter was passed through the tunnel. A VAP was anchored subdermally in the dorsal neck space with non-absorbable suture (e.g., Proline). The catheter was connected to the VAP and secured in the jugular vein. Both incision sites were closed using absorbable suture (e.g., Vicryl).
With a VAP in place, a pig was rotated to sternal recumbency. The back was sterilely prepped for surgery, then draped. Using a 1 cm biopsy punch, excision wounds were created with a separation of approximately 2 cm between each wound. Wounds were organized into three or four sections with n=8 wounds/section (see FIG. 5). To reduce bleeding during wound creation, wound beds were treated with μL quantities of dilute epinephrine (1 mg/mL) as needed by the surgeon. Sterile saline-soaked gauze sponges were placed on excised wounds to maintain moisture as additional wounds were created. Once created, wounds were inoculated with bacteria (with the exception of negative control wounds) in either the planktonic or biofilm phenotype (see FIG. 5).
For wounds inoculated with planktonic bacteria, 2-3 colonies from a fresh overnight culture of A. baumannii were adjusted to a turbidity of 10% (˜1×10^9 CFU/mL) in sterile PBS using a nephelometer. One hundred L were pipetted into wound beds on the left flank of an animal (see FIG. 5).
Biofilm inoculation was performed by first growing biofilms on absorbable collagen for a total of 192 hrs (8 days) as described and transported to the OR in approved containers. Once the excision wounds were created, biofilm-containing collagen coupons were aseptically placed into wounds (one coupon/wound) on the right flank of an animal (see FIG. 1). […] Following inoculation, tincture of benzoin was applied to the border of each wound section to help maintain bandage adherence. Wounds were bandaged with a non-stick Telfa pad and Tegaderm. A custom jacket was also placed to further protect bandaging. Pigs were recovered and allowed to eat and drink ad libitum.
All wounds were reinoculated with planktonic or biofilm bacteria once daily for 3 days following the surgical procedure (total of 4 inoculations). […] To perform the reinoculations, planktonic bacteria were made fresh each day.

P. aeruginosa [13] = assay: EBEC analysis, high number biofilms on PEEK membranes; type: cell-based, Pseudomonas aeruginosa; conditions: 24 hours
Experimental: as §6, §7

[14] = debrided wounds, biofilm phenotype
[15] = debrided wounds, planktonic phenotype
[16] = undebrided wounds, biofilm phenotype
[17] = undebrided wounds, planktonic phenotype

Work on CCC(CC)CNCCCNCCCNCc1ccc(-c2cc(-c3ccc(CNCCCNCCCNCC(CC)CC)cc3)cc(C(C)(C)C)c2)cc1 [CZ-1-179, N^1,N^1′-((5′-(tert-butyl)-[1,1′:3′,1″-terphenyl]-4,4″-diyl)bis(methylene))bis(N^3-(3-((2-ethylbutyl)amino)propyl)propane-1,3-diamine)] yielded an MIC (MRSA [1]) of 0.5 µg/mL (≈ 0.675 µM), an MIC (P. aeruginosa [2]) of 4 µg/mL (≈ 5.4 µM) and an MIC (A. baumannii [3]) of 2 µg/mL (≈ 2.7 µM). The MBC (A. baumannii [4]) was 4 µg/mL (≈ 5.4 µM), the MBC (MRSA [5]) was 1 µg/mL (≈ 1.35 µM) and the MBC (P. aeruginosa [6]) was 4 µg/mL (≈ 5.4 µM). For the same molecule, the EBEC (MRSA [7]) was 250 µg/mL, the EBEC (A. baumannii [8]) was 500 µg/mL and the “CFU/g Tissue” value (A. baumannii [9]; swine wounds inoculated with biofilm bacteria) was 0.00 CFU/g Tissue. For the same molecule, the “CFU/g Tissue” value (A. baumannii [9]; swine wounds inoculated with planktonic bacteria) was 0.00 CFU/g Tissue, the “speed of eradication of A. baumannii” value (A. baumannii [9]; swine wounds, topical) was “faster than SSD” and the MIC [10] was 2 µg/mL (≈ 2.7 µM). The CFU/coupon remaining ([11]; 0.00125% (12.5 μg/mL)) was ~9.2×10^5 CFU/coupon, the “log10 reduction of biofilm” value ([11]; 0.00125% (12.5 μg/mL)) was about 2 log10 and the CFU/coupon remaining ([11]; […] (25 μg/mL)) was ~4.8×10^3 CFU/coupon. The “log10 reduction of biofilm” value ([11]; […] (25 μg/mL)) was about 4 log10, the eradication of biofilms ([11]; concentrations from 2% (20 mg/mL) down to 0.005% (50 μg/mL), polycarbonate coupons) was “full eradication of biofilms” and the “Day after which A. baumannii was no longer detected by culture” value (A. baumannii [12]; Pig 2 (topical agents only)) was 6 days. For the same molecule, the “A. baumannii by culture on Day 6” value (A. baumannii [12]; Pig 4 (IV+topical products)) was “none of the wounds”, the “Day on which healing was obvious” value (A. baumannii [12]; Pig 4 (IV+topical products)) was at most 8 days and the “Day on which signs of infection resolved” value (A. baumannii [12]; Pig 4 (IV+topical products)) was at most 6 days. The “Day on which wound contraction was notable” value (A. baumannii [12]; Pig 4 (IV+topical products), biofilm wounds) was at most 7 days, the “Day on which wound contraction was notable” value (A. baumannii [12]; Pig 4 (IV+topical products), planktonic wounds) was at most 7 days and the reduction of bioburden (A. baumannii [12]; Pig 4, in combination with IV antibiotics) was “reduced completely within two weeks”. For the same molecule, the “days sooner signs of infection cleared than the host alone” value (A. baumannii [12]; pig wounds) was 3 to 4 days, the “Last Day that A. baumannii was Detected in At Least One Wound by Culture Swab” value (A. baumannii [12]; [14]) was 5 and the “Log10 Transformed CFU/g Tissue at Necropsy (Day 28)” value (from here on “Log10 Transformed CFU/g Tissue”) (A. baumannii [12]; [14]) was 0. For the same molecule, the “Last Day that A. baumannii was Detected in At Least One Wound by Culture Swab” value (A. baumannii [12]; [15]) was 5, the “Log10 Transformed CFU/g Tissue” value (A. baumannii [12]; [15]) was 0 and the “Last Day that A. baumannii was Detected in At Least One Wound” value (A. baumannii [12]; [16]) was 5. The “Log10 Transformed CFU/g Tissue” value (A. baumannii [12]; [16]) was 0, the “Last Day that A. baumannii was Detected in At Least One Wound” value (A. baumannii [12]; [17]) was 5 and the “Log10 Transformed CFU/g Tissue” value (A. baumannii [12]; [17]) was 0.
In the case of CC(C)CCNCCCNCCCNCc1cccc(-c2cc(-c3cccc(CNCCCNCCCNCCC(C)C)c3)cc(C(C)(C)C)c2)c1 [CZ-1-182, N^1,N^1′-((5′-(tert-butyl)-[1,1′:3′,1″-terphenyl]-3,3″-diyl)bis(methylene))bis(N^3-(3-(isopentylamino)propyl)propane-1,3-diamine)], the MIC (MRSA [1]) is reported as 0.25 µg/mL (≈ 0.351 µM), the MIC (P. aeruginosa [2]) is reported as 4 µg/mL (≈ 5.61 µM) and the MIC (A. baumannii [3]) is reported as 32 µg/mL (≈ 44.9 µM). It also gave an EBEC (MRSA [7]) of 100 µg/mL, an EBEC (P. aeruginosa [13]) of 150 µg/mL and an EBEC (A. baumannii [8]) of 300 µg/mL.
